Data taken from ChEMBL document CHEMBL4507256 (2021).

Experiments:
[1] = molecular target: Serine/threonine-protein kinase 38 (Homo sapiens) (UniProt Q15208); details: Compound concentration 1000.0 nM
[2] = molecular target: Sigma intracellular receptor 2 (Homo sapiens) (UniProt Q5BJF2); details: Compound concentration 10.0 uM
[3] = molecular target: Cyclin-dependent kinase 14 (Homo sapiens) (UniProt O94921); details: Compound concentration 1000.0 nM
[4] = molecular target: RAF proto-oncogene serine/threonine-protein kinase (Homo sapiens) (UniProt P04049); details: Compound concentration 1000.0 nM
[5] = molecular target: Ribosomal protein S6 kinase alpha-3 (Homo sapiens) (UniProt P51812); details: Compound concentration 1000.0 nM
[6] = tested on: Tyrosine-protein kinase ABL1 (Homo sapiens), P00519 [F317L]; details: Compound concentration 1000.0 nM
[7] = molecular target: Ribosomal protein S6 kinase alpha-4 (Homo sapiens) (UniProt O75676); details: Compound concentration 1000.0 nM
[8] = molecular target: Phosphatidylinositol 4,5-bisphosphate 3-kinase catalytic subunit gamma isoform (Homo sapiens) (UniProt P48736); details: Compound concentration 1000.0 nM
[9] = molecular target: Proto-oncogene tyrosine-protein kinase receptor Ret (Homo sapiens) (UniProt P07949); details: Compound concentration 1000.0 nM
[10] = molecular target: Testis-specific serine/threonine-protein kinase 1 (Homo sapiens) (UniProt Q9BXA7); details: Compound concentration 1000.0 nM
[11] = tested on: Tyrosine-protein kinase ABL1 (Homo sapiens), P00519 [F317L]; details: Compound concentration 1000.0 nM; remark: listed apart in the source
[12] = molecular target: Uncharacterized serine/threonine-protein kinase SBK3 (Homo sapiens) (UniProt P0C264); details: Compound concentration 1000.0 nM
[13] = molecular target: Tyrosine-protein kinase Fes/Fps (Homo sapiens) (UniProt P07332); details: Compound concentration 1000.0 nM
[14] = molecular target: Serine/threonine-protein kinase 10 (Homo sapiens) (UniProt O94804); details: Compound concentration 1000.0 nM
[15] = molecular target: Ribosomal protein S6 kinase alpha-5 (Homo sapiens) (UniProt O75582); details: Compound concentration 1000.0 nM
[16] = molecular target: Mitogen-activated protein kinase 3 (Homo sapiens) (UniProt P27361); details: Compound concentration 1000.0 nM
[17] = molecular target: Serine/threonine-protein kinase 3 (Homo sapiens) (UniProt Q13188); details: Compound concentration 1000.0 nM
[18] = molecular target: Serine/threonine-protein kinase VRK2 (Homo sapiens) (UniProt Q86Y07); details: Compound concentration 1000.0 nM
[19] = molecular target: Serine/threonine-protein kinase 4 (Homo sapiens) (UniProt Q13043); details: Compound concentration 1000.0 nM
[20] = molecular target: Non-receptor tyrosine-protein kinase TNK1 (Homo sapiens) (UniProt Q13470); details: Compound concentration 1000.0 nM
[21] = molecular target: TRAF2 and NCK-interacting protein kinase (Homo sapiens) (UniProt Q9UKE5); details: Compound concentration 1000.0 nM
[22] = molecular target: Aurora kinase A (Homo sapiens) (UniProt O14965); details: Compound concentration 1000.0 nM
[23] = molecular target: Mitogen-activated protein kinase 13 (Homo sapiens) (UniProt O15264); details: Compound concentration 1000.0 nM
[24] = tested on: Epidermal growth factor receptor (Homo sapiens), P00533 [UNDEFINED MUTATION]; details: Compound concentration 1000.0 nM
[25] = molecular target: Ribosomal protein S6 kinase alpha-1 (Homo sapiens) (UniProt Q15418); details: Compound concentration 1000.0 nM
[26] = molecular target: Cyclin-dependent kinase 7 (Homo sapiens) (UniProt P50613); details: Compound concentration 1000.0 nM
[27] = molecular target: Serine/threonine-protein kinase BRSK2 (Homo sapiens) (UniProt Q8IWQ3); details: Compound concentration 1000.0 nM
[28] = molecular target: Serine/threonine-protein kinase mTOR (Homo sapiens) (UniProt P42345); details: Compound concentration 1000.0 nM
[29] = molecular target: Ephrin type-A receptor 4 (Homo sapiens) (UniProt P54764); details: Compound concentration 1000.0 nM
[30] = molecular target: Serine/threonine-protein kinase MRCK gamma (Homo sapiens) (UniProt Q6DT37); details: Compound concentration 1000.0 nM
[31] = molecular target: Serine/threonine-protein kinase PAK 5 (Homo sapiens) (UniProt Q9P286); details: Compound concentration 1000.0 nM
[32] = molecular target: Serine/threonine-protein kinase ULK2 (Homo sapiens) (UniProt Q8IYT8); details: Compound concentration 1000.0 nM
[33] = molecular target: Ephrin type-A receptor 6 (Homo sapiens) (UniProt Q9UF33); details: Compound concentration 1000.0 nM
[34] = molecular target: Phosphorylase b kinase gamma catalytic chain, skeletal muscle/heart isoform (Homo sapiens) (UniProt Q16816); details: Compound concentration 1000.0 nM
[35] = molecular target: Tyrosine-protein kinase JAK1 (Homo sapiens) (UniProt P23458); details: Compound concentration 1000.0 nM
[36] = molecular target: Homeodomain-interacting protein kinase 1 (Homo sapiens) (UniProt Q86Z02); details: Compound concentration 1000.0 nM
[37] = tested on: Receptor-type tyrosine-protein kinase FLT3 (Homo sapiens), P36888 [N841I]; details: Compound concentration 1000.0 nM
[38] = molecular target: T1, Muscarinic acetylcholine receptor M4 (Homo sapiens) (UniProt P08173); details: Compound concentration 10.0 uM
T1 sequence (whole entry): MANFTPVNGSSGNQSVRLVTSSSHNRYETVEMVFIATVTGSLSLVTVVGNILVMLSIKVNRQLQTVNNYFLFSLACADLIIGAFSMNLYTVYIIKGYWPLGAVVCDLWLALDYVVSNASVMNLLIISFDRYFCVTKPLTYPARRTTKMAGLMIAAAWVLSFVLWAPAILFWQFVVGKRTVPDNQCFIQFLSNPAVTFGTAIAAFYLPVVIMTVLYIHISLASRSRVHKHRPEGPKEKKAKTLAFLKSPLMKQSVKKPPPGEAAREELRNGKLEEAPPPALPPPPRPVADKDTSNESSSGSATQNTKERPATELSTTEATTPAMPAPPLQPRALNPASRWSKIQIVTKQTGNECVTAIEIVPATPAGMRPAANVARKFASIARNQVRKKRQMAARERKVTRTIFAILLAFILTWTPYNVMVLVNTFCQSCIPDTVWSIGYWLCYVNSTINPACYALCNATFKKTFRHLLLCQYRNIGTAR

Tyrosine-protein kinase ABL1 (Homo sapiens), P00519 [F317L], sequence (P00519 whole entry F317L): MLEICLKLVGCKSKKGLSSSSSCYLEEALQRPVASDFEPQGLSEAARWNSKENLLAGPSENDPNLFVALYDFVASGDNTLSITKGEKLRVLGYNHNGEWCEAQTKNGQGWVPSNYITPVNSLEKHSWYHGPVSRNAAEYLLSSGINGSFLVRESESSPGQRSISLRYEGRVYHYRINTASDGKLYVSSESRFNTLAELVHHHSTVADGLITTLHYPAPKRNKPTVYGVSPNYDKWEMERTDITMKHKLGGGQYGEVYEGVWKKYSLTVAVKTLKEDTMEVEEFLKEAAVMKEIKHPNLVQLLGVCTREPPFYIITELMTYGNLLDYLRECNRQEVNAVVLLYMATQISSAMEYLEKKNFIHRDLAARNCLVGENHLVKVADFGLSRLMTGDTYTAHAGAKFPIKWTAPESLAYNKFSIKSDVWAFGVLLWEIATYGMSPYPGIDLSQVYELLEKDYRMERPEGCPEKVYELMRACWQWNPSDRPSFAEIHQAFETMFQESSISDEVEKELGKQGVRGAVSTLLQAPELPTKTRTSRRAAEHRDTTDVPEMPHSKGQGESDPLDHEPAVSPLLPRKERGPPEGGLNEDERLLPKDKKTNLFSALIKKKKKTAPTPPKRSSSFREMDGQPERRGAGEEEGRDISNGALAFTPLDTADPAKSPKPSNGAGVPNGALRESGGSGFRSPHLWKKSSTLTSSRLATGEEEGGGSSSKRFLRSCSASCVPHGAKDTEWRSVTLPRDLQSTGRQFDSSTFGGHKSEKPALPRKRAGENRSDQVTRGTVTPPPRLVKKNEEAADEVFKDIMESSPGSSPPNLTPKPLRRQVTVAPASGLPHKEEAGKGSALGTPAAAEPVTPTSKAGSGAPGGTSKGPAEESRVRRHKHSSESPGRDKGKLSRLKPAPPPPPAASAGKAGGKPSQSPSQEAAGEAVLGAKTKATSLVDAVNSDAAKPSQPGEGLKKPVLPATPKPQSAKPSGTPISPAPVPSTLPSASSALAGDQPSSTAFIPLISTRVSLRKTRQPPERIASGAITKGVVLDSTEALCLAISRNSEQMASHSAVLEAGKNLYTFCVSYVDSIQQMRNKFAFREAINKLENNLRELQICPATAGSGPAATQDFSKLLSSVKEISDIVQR
Serine/threonine-protein kinase ULK2 (Homo sapiens), sequence (Q8IYT8 whole entry): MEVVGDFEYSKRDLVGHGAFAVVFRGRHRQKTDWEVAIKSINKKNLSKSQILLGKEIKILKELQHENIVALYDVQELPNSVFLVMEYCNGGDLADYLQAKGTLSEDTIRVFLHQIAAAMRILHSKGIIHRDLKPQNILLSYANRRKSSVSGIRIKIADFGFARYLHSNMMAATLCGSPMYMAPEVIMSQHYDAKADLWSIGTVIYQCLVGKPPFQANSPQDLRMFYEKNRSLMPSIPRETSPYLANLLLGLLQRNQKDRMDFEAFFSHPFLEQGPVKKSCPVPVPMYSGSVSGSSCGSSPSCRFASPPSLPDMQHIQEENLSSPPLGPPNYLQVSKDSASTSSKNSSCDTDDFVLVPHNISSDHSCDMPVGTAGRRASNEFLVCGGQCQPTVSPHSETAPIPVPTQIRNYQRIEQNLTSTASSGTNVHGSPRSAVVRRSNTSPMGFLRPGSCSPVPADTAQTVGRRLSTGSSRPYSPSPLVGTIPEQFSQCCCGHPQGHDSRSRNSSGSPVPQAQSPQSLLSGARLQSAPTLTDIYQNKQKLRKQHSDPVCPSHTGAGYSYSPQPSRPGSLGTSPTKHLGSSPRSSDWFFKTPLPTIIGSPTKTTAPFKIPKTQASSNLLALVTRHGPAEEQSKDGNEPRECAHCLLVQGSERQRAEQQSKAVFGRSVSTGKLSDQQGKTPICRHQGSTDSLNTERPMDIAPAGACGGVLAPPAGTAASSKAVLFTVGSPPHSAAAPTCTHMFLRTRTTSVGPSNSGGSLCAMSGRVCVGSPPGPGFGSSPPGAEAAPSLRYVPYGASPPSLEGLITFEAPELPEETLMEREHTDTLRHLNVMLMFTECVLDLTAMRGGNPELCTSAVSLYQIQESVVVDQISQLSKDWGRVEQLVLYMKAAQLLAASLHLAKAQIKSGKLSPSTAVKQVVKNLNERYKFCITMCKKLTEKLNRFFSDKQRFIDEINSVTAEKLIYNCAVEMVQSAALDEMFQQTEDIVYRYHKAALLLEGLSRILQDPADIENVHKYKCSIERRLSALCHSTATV
Proto-oncogene tyrosine-protein kinase receptor Ret (Homo sapiens), sequence (P07949 whole entry): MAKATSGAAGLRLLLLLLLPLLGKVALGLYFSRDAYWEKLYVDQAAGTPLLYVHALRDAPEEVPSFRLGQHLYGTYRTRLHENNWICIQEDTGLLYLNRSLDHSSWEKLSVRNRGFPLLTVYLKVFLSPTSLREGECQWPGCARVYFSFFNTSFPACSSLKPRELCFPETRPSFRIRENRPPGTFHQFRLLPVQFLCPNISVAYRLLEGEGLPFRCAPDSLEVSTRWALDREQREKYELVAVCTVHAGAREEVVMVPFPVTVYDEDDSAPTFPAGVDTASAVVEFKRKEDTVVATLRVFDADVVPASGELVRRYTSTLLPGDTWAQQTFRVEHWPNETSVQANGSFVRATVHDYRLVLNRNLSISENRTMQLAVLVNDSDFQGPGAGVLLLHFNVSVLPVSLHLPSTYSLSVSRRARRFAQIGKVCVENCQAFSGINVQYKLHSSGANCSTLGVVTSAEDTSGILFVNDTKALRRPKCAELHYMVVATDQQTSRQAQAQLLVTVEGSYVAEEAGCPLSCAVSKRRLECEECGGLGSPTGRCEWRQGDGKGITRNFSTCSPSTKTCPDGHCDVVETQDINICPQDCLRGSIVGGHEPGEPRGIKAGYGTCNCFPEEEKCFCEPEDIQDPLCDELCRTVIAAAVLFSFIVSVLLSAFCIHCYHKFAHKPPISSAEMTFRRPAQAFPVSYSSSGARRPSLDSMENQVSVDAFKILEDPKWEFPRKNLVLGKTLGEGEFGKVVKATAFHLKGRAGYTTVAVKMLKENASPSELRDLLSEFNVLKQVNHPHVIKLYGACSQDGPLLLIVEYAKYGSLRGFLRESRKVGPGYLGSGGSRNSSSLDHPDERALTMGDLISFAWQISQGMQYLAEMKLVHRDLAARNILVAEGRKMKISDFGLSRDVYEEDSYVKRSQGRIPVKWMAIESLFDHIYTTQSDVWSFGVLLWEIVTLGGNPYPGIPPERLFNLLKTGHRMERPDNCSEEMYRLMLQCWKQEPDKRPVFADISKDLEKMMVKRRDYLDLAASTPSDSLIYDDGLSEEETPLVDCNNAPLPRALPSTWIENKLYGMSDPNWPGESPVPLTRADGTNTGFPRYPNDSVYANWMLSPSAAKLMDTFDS
Tyrosine-protein kinase JAK1 (Homo sapiens), sequence (P23458 whole entry): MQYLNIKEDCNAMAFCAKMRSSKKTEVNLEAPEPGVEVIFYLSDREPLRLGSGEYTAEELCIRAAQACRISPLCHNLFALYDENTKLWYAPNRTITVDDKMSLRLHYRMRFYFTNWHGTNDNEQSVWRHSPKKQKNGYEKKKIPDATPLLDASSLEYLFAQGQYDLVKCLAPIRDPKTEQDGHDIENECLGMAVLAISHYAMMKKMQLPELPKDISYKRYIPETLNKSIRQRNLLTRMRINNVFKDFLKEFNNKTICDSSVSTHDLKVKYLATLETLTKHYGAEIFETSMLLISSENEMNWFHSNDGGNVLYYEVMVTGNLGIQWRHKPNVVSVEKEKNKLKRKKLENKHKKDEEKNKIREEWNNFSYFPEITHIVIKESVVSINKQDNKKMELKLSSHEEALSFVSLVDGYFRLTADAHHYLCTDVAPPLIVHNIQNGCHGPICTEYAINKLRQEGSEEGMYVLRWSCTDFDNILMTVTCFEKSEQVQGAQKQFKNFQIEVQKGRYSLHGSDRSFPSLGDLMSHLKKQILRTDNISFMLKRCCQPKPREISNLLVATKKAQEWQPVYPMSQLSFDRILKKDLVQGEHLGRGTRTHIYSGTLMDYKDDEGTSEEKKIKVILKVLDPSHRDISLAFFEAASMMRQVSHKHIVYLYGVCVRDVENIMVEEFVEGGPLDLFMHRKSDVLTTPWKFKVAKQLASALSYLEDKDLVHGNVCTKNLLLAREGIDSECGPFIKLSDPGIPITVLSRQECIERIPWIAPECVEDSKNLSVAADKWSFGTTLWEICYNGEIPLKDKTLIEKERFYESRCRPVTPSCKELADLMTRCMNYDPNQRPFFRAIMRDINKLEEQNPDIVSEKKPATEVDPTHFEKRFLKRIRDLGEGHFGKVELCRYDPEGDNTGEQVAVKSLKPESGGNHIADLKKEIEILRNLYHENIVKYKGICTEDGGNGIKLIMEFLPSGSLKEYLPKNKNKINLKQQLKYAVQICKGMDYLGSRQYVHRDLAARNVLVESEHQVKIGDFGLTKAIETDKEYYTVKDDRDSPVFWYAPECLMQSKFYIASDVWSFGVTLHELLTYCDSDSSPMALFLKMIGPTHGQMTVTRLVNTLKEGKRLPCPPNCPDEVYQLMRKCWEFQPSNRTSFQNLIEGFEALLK
Mitogen-activated protein kinase 3 (Homo sapiens), sequence (P27361 whole entry): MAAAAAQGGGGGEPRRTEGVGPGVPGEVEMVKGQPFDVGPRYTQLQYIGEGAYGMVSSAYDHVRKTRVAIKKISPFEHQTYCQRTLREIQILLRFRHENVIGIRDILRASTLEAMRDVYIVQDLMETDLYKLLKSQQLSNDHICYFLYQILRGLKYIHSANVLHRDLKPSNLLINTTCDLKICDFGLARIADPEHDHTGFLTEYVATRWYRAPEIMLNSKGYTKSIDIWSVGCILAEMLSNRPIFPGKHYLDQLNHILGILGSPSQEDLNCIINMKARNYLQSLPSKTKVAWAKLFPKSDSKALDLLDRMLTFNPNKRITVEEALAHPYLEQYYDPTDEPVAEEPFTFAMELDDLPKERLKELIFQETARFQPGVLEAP
Sigma intracellular receptor 2 (Homo sapiens), sequence (Q5BJF2 whole entry): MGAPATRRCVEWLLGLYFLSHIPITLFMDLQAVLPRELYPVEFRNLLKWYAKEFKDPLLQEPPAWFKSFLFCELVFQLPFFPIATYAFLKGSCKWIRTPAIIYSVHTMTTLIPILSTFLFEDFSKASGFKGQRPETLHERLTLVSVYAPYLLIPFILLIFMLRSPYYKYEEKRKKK

Row | Structure (SMILES) | residual activity [1] [%] | inhibition [2] [%] | residual activity [3] [%] | residual activity [4] [%] | residual activity [5] [%] | residual activity [6] [%] | residual activity [7] [%] | residual activity [8] [%] | residual activity [9] [%] | residual activity [10] [%] | residual activity [11] [%] | residual activity [12] [%] | residual activity [13] [%] | residual activity [14] [%] | residual activity [15] [%] | residual activity [16] [%] | residual activity [17] [%] | residual activity [18] [%] | residual activity [19] [%] | residual activity [20] [%] | also measured
1 | CCC(=N\O)/C(C)=C/c1ccc(F)cc1 [A-079] | 94 | 22.6 | 91 | 91 | 81 | 81 | 81 | 100 | 100 | 82 | 81 | 100 | 73 | 76 | 100 | 69 | 100 | 74 | 78 | 66 | residual activity [21]: 93%; residual activity [22]: 100%; residual activity [23]: 92%; residual activity [24]: 65%; residual activity [25]: 100%; residual activity [26]: 60%; residual activity [27]: 100%; residual activity [28]: 100%; residual activity [29]: 74%; residual activity [30]: 73%; residual activity [31]: 100%; residual activity [32]: 46%; residual activity [33]: 67%; residual activity [34]: 100%; residual activity [35]: 88%; residual activity [36]: 80%; residual activity [37]: 74%; inhibition [38]: 18.2%
2 | CCC(=N\O)/C(C)=C/c1ccc(F)c(C)c1 [A-226] | 95 | 33.4 | 92 | 99 | 100 | 100 | 91 | 100 | 100 | 90 | 100 | 100 | 93 | 73 | 89 | 100 | 100 | 100 | 70 | 100 | residual activity [21]: 96%; residual activity [22]: 82%; residual activity [23]: 100%; residual activity [24]: 73%; residual activity [25]: 100%; residual activity [26]: 93%; residual activity [27]: 100%; residual activity [28]: 100%; residual activity [29]: 100%; residual activity [30]: 85%; residual activity [31]: 100%; residual activity [32]: 100%; residual activity [33]: 100%; residual activity [34]: 100%; residual activity [35]: 100%; residual activity [36]: 97%; residual activity [37]: 49%; inhibition [38]: 15.4%
